Data on 56 molecules can be found in patent publication US6911443B2 (Bayer Aktiengesellschaft, priority 2000, dated 2005).

The structures appear in SMILES notation.

One test deals with T1, human Syk (GST-Syk) (Homo sapiens, UniProt P43405).
T1 construct: A cDNA fragment encoding human Syk openreading frame was cloned; made in house; host or cells: Sf21 insect cells (baculovirus, transfer vector pAcG2T)
As to the kind of experiment: Syk tyrosine kinase inhibitory assay. Conditions: Table 11; read-out: Activity grade. In kind it is biochemical. In outline: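 GST-tagged human Syk from baculovirus/Sf21, 0.65 nM final, with 3 μM biotinylated 30-residue activation-loop peptide and 30 μM ATP in Tris pH 8.0/MgCl2 buffer, 0.25% DMSO; 1 h at room temperature. Phosphopeptide captured on streptavidin, detected by europium-labelled anti-phosphotyrosine 4G10 time-resolved fluorescence.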
For the molecule `COCCN(C)c1ccc(-c2cc3nccn3c(Nc3ccc(C(F)(F)F)cc3)n2)cc1OC` [Example 12-43], the IC50 was less than 500 nM.

Regarding `COc1cc(-c2cc3nccn3c(Nc3ccccc3)n2)ccc1OCCCN1CCN(C)CC1` [Example 12-36], the IC50 is less than 500 nM. As to `COc1ccc(-c2cc3nccn3c(Nc3ccccn3)n2)cc1OC` [Example 12-3], the IC50 is less than 500 nM. As to `CCOCCOc1ccc(-c2cc3nccn3c(Nc3ccccc3)n2)cc1OCCOCC` [Example 12-24], the IC50 lay in the range of 500 to 2000 nM. `COc1ccc(-c2cc3nccn3c(Nc3ccc(CCN4CCOCC4)cc3)n2)cc1OC` [Example 12-1]: the IC50 was 500 to 2000 nM. As for `COc1cc(-c2cc3nccn3c(Nc3ccccc3)n2)ccc1OCCN1CCOCC1` [Example 12-26], the IC50 was less than 500 nM.

Take `COc1cc(-c2cc3nccn3c(Nc3ccccc3)n2)ccc1OCCCN1CCSCC1` [Example 12-34]: the IC50 was less than 500 nM. With `COc1ccc(-c2cc3nccn3c(Nc3ccccc3)n2)cc1OCCN1CCOCC1` [Example 12-25], the IC50 is less than 500 nM.

On to `CCOc1ccc(-c2cc3nccn3c(Nc3ccccc3)n2)cc1OCC` [Example 12-23], for which the IC50 was less than 500 nM.

The test is the same for the next values; noted with them: Table 13; read-out: Activity grade.
Regarding `COc1ccc(-c2cc3nccn3c(SCC(F)(F)F)n2)cc1OC` [Example 14-16], the IC50 is less than 500 nM.

In the case of `CNC(=O)CSc1nc(-c2ccc(OC)c(OC)c2)cc2nccn12` [Example 14-33], the IC50 was less than 500 nM. In the case of `COc1ccc(-c2cc3nccn3c(SCCNC(=O)OC(C)(C)C)n2)cc1OC` [Example 14-24], the IC50 lay within 500 to 2000 nM.

On to `COc1ccc(-c2cc3nccn3c(Oc3ccccc3Br)n2)cc1OC` [Example 14-4], for which the IC50 was in the range of 500 to 2000 nM.

The test is the same for the next values; noted with them: Table 15; read-out: Activity grade.
Regarding `COc1ccc(-c2cc3nccn3c(Sc3ccncc3N)n2)cc1OC` [Example 16-7], the IC50 is less than 500 nM.

The test is the same for the next values; noted with them: Table 17; IC50 classes; read-out: Activity grade.
Take `COc1ccc(-c2cc3nccn3c(NC(=O)Nc3ccccc3)n2)cc1OC` [Example 22]: the IC50 fell in the range of 500 to 2000 nM. Take `COc1ccc(-c2cc3nccn3c(Sc3ccc(CCC(=O)N4CCOCC4)cc3)n2)cc1OC` [Example 18]: the IC50 was less than 500 nM.

Staying with this test, now noted: in vitro; compounds as yielded by solid phase synthesis, purity about 40 to 90%.
As for `COc1ccc(-c2cc3nccn3c(N3CCC(Cc4ccccc4)CC3)n2)cc1OC` [Example 9-59], the “Activity grade (IC50 class)” value is on record as “C-D”. Turning to `CCSc1nc(-c2ccc(S(=O)(=O)N3CCOCC3)c(OC)c2)cc2nccn12` [Example 2-6], the “Activity grade (IC50 class)” value is on record as “C-D”.

Still in this test, the particulars now being: in vitro; compounds as yielded by solid phase synthesis, purity about 40 to 90%; read-out: Activity grade (IC50 class).
As for `CCN(Cc1ccncc1)c1nc(-c2ccc(OC)c(OC)c2)cc2nccn12` [Example 9-52], the IC50 fell in the range of 500 to 2000 nM. Take `COC(=O)CCCc1ccc(N(C)c2nc(-c3ccc(OC)c(OC)c3)cc3nccn23)cc1` [Example 11-125]: the IC50 lay within 500 to 2000 nM. Take `CCN(CCO)c1ccc(Nc2nc(-c3ccc(OC)c(OC)c3)cc3nccn23)cc1` [Example 11-68]: the IC50 was less than 500 nM. `CCCCOC(=O)CSc1nc(-c2ccc(OC)c(OC)c2)cc2nccn12` [Example 9-92]: the IC50 is 500 to 2000 nM. The same measure, in the same setting: the value for `COc1ccc(-c2cc3nccn3c(N(CCO)Cc3ccccc3)n2)cc1OC` [Example 9-29] was less than 500 nM; that for `CCSc1nc(-c2ccc([N+](=O)[O-])c(OC)c2)cc2nccn12` [Example 8-8] was 2000 to 10000 nM. In the case of `COc1ccc(-c2cc3nccn3c(Nc3ccc(OC(F)(F)F)cc3)n2)cc1OC` [Example 11-95], the IC50 was less than 500 nM. As for `CCSc1nc(-c2cccc(N)c2)cc2nccn12` [Example 8, 3-(5-Ethylsulfanyl-imidazo[1,2-c]pyrimidin-7-yl)-phenylamine], the IC50 was less than 500 nM.

As for `CCNC(=O)Oc1cc(-c2cc3nccn3c(SCC)n2)ccc1OC` [Example 4-8], the IC50 was less than 500 nM.

With `CCSc1nc(-c2cccs2)cc2nccn12` [Example 8-3], the IC50 was 500 to 2000 nM. As for `CCSc1nc(-c2ccc(OCCCN3CCCCC3)c(OC)c2)cc2nccn12` [Example 5-7], the IC50 is less than 500 nM. Consider `COc1ccc(Nc2nc(-c3ccc(OC)c(OC)c3)cc3nccn23)c(C(N)=O)c1` [Example 11-96], for which the IC50 is less than 500 nM.

`CCSc1nc(-c2ccc(C)c(S(=O)(=O)N3CCN(CCO)CC3)c2)cc2nccn12` [Example 2-1]: the IC50 fell in the range of 500 to 2000 nM. Still for that read-out and setting: the value for `COc1ccc(-c2cc3nccn3c(Nc3ccc(C(N)=O)cc3)n2)cc1OC` [Example 11-36] was less than 500 nM; that for `CCSc1nc(-c2ccc(OC(=O)C(C)C)c(OC)c2)cc2nccn12` [Example 3-8] was 500 to 2000 nM; that for `COc1ccc(-c2cc3nccn3c(Nc3ccc(CC#N)cc3)n2)cc1OC` [Example 11-63] was less than 500 nM. Turning to `COc1ccc(-c2cc3nccn3c(Sc3ccc(N)cc3)n2)cc1OC` [Example 13-4], the IC50 is less than 500 nM. Same read-out and setting: the value for `COc1ccc(-c2cc3nccn3c(Nc3ccccc3C(=O)N(C)C)n2)cc1OC` [Example 11-1] was 500 to 2000 nM; that for `COC(=O)CCc1ccc(Nc2nc(-c3ccc(OC)c(OC)c3)cc3nccn23)cc1` [Example 9-24] was less than 500 nM; that for `CCSc1nc(-c2ccc(OC)nc2)cc2nccn12` [Example 1-2] was 2000 to 10000 nM. Turning to `COc1ccc(-c2cc3nccn3c(Nc3ccccc3O)n2)cc1OC` [Example 11-31], the IC50 was less than 500 nM. For `CCSc1nc(-c2ccc3c(c2)OCO3)cc2nccn12` [Example 1-3], the IC50 was in the range of 500 to 2000 nM. As for `COc1cccc(N2CCN(c3nc(-c4ccc(OC)c(OC)c4)cc4nccn34)CC2)c1` [Example 9-43], the IC50 was in the range of 2000 to 10000 nM.

For the molecule `CCSc1nc(-c2ccc(OC)c(S(=O)(=O)NCCO)c2)cc2nccn12` [Example 2-2], the IC50 was less than 500 nM. Take `CCSc1nc(-c2ccc(SC)c(S(=O)(=O)N3CCN(CCO)CC3)c2)cc2nccn12` [Example 2-4]: the IC50 was in the range of 500 to 2000 nM. Take `CNc1nc(-c2ccc(OC)c(OC)c2)cc2nccn12` [Example 9-12]: the IC50 fell in the range of 500 to 2000 nM. `COc1cc(-c2cc3nccn3c(Sc3ccc(CCC(=O)O)cc3)n2)ccc1OCc1ccccc1` [Example 13-26]: the IC50 is less than 500 nM. On the same count and under the same terms, the value for `CCSc1nc(-c2ccc(OC)c(OC3CCCCC3)c2)cc2nccn12` [Example 4-4] was 500 to 2000 nM; that for `COc1ccc(-c2cc3nccn3c(Sc3cccc(CC(O)O)c3)n2)cc1OC` [Example 13-20] was less than 500 nM; that for `COc1ccc(-c2cc3nccn3c(Nc3ccc(OC(C)C)cc3)n2)cc1OC` [Example 11-98] was less than 500 nM. On the same count and under the same terms, the value for `CCSc1nc(-c2ccc3cc(OC)ccc3c2)cc2nccn12` [Example 1-6] was 2000 to 10000 nM; that for `COc1ccc(-c2cc3nccn3c(Nc3ccc(F)cc3C(=O)O)n2)cc1OC` [Example 11-41] was less than 500 nM; that for `COc1ccc(-c2cc3nccn3c(Nc3ccc(Cl)cc3)n2)cc1OC` [Example 11-61] was less than 500 nM. Same read-out and setting: the value for `COc1ccc(-c2cc3ncnn3c(Nc3ccc(CCCC(=O)O)cc3C(N)=O)n2)cc1OC` [Example 11-106] was less than 500 nM; that for `COc1ccc(-c2cc3nccn3c(NCCc3ccccn3)n2)cc1OC` [Example 9-84] was 500 to 2000 nM. For `CCSc1nc(-c2ccc(OC)c(OC(C)=O)c2)cc2nccn12` [Example 4-7], the IC50 is less than 500 nM.

In the case of `COc1ccc(-c2cc3nccn3c(N(C)c3ccc(S(=O)(=O)O)cc3)n2)cc1OC` [Example 11-6], the IC50 was 2000 to 10000 nM.

Turning to `CCSc1nc(-c2ccc(OC)c(OCCCN3CCN(C)CC3)c2)cc2nccn12` [Example 5-4], the IC50 is 500 to 2000 nM.
